Experimental data taken from US7612065B2, “Inhibitors of c-JUN N-terminal kinases (JNK)” (priority 2007, dated 2009).
Blank lines part the entries; values can stand above or below the compound they belong to.

Biological target: T1, JNK3 (Homo sapiens, UniProt P53779)
T1 construct: One such construct encodes amino acid residues Ser40-Glu402 of JNK3α1 and is preceded by Met and Gly residues; Met-Gly (initiation methionine plus glycine added for the NcoI site); made in house; host or cells: E. coli BL21 (DE3)
Assay: JNK inhibition assay: spectrophotometric coupled-enzyme assay with activated JNK3
Type: biochemical
Settings: activated JNK3 10 nM, 10 μM ATP, 200 μM EGF receptor peptide, 30° C., competitive inhibition model
Source text: A BLAST search of the EST database using the published JNK3α1 cDNA as a query identified an EST clone (#632588) that contained the entire coding sequence for human JNK3α1. Polymerase chain reactions (PCR) using pfu polymerase (Strategene) were used to introduce restriction sites into the cDNA for cloning into the pET-15B expression vector at the NcoI and BamHI sites. The protein was expressed in E. coli. […] This truncation corresponds to Ser 2 of JNK1 and JNK2 proteins, and is preceded by a methionine (initiation) and a glycine residue. The glycine residue was added in order to introduce an NcoI site for cloning into the expression vector. In addition, systematic C-terminal truncations were performed by PCR to identify a construct that give rise to diffraction-quality crystals.
5 mg of JNK3 was diluted to 0.5 mg/ml in 50 mM HEPES buffer, pH 7.5, containing 100 mM NaCl, 5 mM DTT, 20 mM MgCl2 and 1 mM ATP. GST-MKK7(DD) was added at a molar ratio of 1:2.5 GST-MKK7:JNK3. After incubation for 30 minutes at 25° C., the reaction mixture was concentrated 5-fold by ultrafiltration in a Centriprep-30 (Amicon, Beverly, Mass.), diluted to 10 ml and an additional 1 mM ATP added. This procedure was repeated three times to remove ADP and replenish ATP. The final addition of ATP was 5 mM and the mixture incubated overnight at 4° C.
The activated JNK3/GST-MKK7(DD) reaction mixture was exchanged into 50 mM HEPES buffer, pH 7.5, containing 5 mM DTT and 5% glycerol (w/v) by dialysis or ultrafiltration. The reaction mixture was adjusted to 1.1 M potassium phosphate, pH 7.5, and purified by hydrophobic interaction chromatography (at 25° C.) using a Rainin Hydropore column. […] Activated JNK3 (i.e. doubly phosphorylated JNK3) was stored at −70° C. at 0.25-1 mg/ml.
Compounds were assayed for the inhibition of JNK3 by a spectrophotometric coupled-enzyme assay. In this assay, a fixed concentration of activated JNK3 (10 nM) was incubated with various concentrations of a potential inhibitor dissolved in DMSO for 10 minutes at 30° C. in a buffer containing 0.1 M HEPES buffer, pH 7.5, containing 10 mM MgCl2, 2.5 mM phosphoenolpyruvate, 200 μM NADH, 150 μg/mL pyruvate kinase, 50 μg/mL lactate dehydrogenase, and 200 μM EGF receptor peptide. […] The reaction was initiated by the addition of 10 μM ATP and the assay plate is inserted into the spectrophotometer's assay plate compartment that was maintained at 30° C. The decrease of absorbance at 340 nm was monitored as a function of time. The rate data as a function of inhibitor concentration was fitted to competitive inhibition kinetic model to determine the Ki.

T1 sequence (P53779 40-402): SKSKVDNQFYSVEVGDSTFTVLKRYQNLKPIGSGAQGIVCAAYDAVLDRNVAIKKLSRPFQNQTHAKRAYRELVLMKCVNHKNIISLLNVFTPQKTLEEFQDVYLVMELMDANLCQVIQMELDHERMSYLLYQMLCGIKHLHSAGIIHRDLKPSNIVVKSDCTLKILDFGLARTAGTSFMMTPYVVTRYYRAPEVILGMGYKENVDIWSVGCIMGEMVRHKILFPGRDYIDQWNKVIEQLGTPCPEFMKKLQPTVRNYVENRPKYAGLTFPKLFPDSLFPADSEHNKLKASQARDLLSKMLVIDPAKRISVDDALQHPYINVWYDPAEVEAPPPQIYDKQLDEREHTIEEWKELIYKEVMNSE

SMILES: Cc1cccc(CN2C(=O)/C(=N\O)c3cc(F)ccc32)c1 [Compound 57]
- Ki: ≥ 1 µM

SMILES: O=C1/C(=N\O)c2cc(F)ccc2N1Cc1cccc(F)c1 [Compound 58]
- Ki: ≥ 1 µM

SMILES: O=C1/C(=N\O)c2cc(F)ccc2N1Cc1ccccc1F [Compound 59]
- Ki: ≥ 1 µM

SMILES: COc1ccc(CN2C(=O)/C(=N\O)c3ccccc32)cc1 [Compound 61]
- Ki: ≥ 1 µM

SMILES: O=C1/C(=N\O)c2ccccc2N1Cc1cccc([N+](=O)[O-])c1 [Compound 62]
- Ki: < 1 µM

SMILES: N#Cc1ccccc1CN1C(=O)/C(=N\O)c2ccccc21 [Compound 63]
- Ki: ≥ 1 µM

SMILES: COc1ccccc1-c1nc(CN2C(=O)/C(=N\O)c3ccccc32)no1 [Compound 64]
- Ki: ≥ 1 µM

SMILES: COc1ccc(-c2nc(CN3C(=O)/C(=N\O)c4ccccc43)no2)cc1 [Compound 65]
- Ki: ≥ 1 µM

SMILES: O=C1/C(=N\O)c2ccccc2N1Cc1cccc(Oc2ccccc2)c1 [Compound 66]
- Ki: ≥ 1 µM

SMILES: CS(=O)(=O)c1ccc(CN2C(=O)/C(=N\O)c3ccccc32)cc1 [Compound 67]
- Ki: ≥ 1 µM

SMILES: COc1cc(CN2C(=O)/C(=N\O)c3ccccc32)cc(OC)c1 [Compound 68]
- Ki: < 1 µM

SMILES: O=C1/C(=N\O)c2ccccc2N1Cc1cc(F)cc2c1OCOC2 [Compound 69]
- Ki: < 1 µM

SMILES: O=C1/C(=N\O)c2ccccc2N1Cc1ncc(C(F)(F)F)cc1Cl [Compound 70]
- Ki: ≥ 1 µM

SMILES: O=C1/C(=N\O)c2ccccc2N1Cc1csc(-c2ccc(Cl)cc2)n1 [Compound 71]
- Ki: ≥ 1 µM

SMILES: COc1ccc(CN2C(=O)/C(=N\O)c3cc(Cl)ccc32)cc1 [Compound 72]
- Ki: ≥ 1 µM

SMILES: O=C1/C(=N\O)c2cc(Cl)ccc2N1Cc1cccc(Oc2ccccc2)c1 [Compound 73]
- Ki: ≥ 1 µM

SMILES: COc1cc(CN2C(=O)/C(=N\O)c3cc(Cl)ccc32)cc(OC)c1 [Compound 74]
- Ki: < 1 µM

SMILES: O=C1/C(=N\O)c2cc(Cl)ccc2N1Cc1cc(F)cc2c1OCCO2 [Compound 75]
- Ki: < 1 µM

SMILES: O=C1/C(=N\O)c2cc(Cl)ccc2N1Cc1ccccn1 [Compound 76]
- Ki: ≥ 1 µM

SMILES: O=C1/C(=N\O)c2cc(Cl)ccc2N1Cc1csc(-c2ccc(Cl)cc2)n1 [Compound 77]
- Ki: < 1 µM

SMILES: COc1ccc(CN2C(=O)/C(=N\O)c3cc(F)ccc32)cc1 [Compound 78]
- Ki: ≥ 1 µM

SMILES: O=C1/C(=N\O)c2cc(F)ccc2N1Cc1cccc([N+](=O)[O-])c1 [Compound 79]
- Ki: ≥ 1 µM

SMILES: N#Cc1ccccc1CN1C(=O)/C(=N\O)c2cc(F)ccc21 [Compound 80]
- Ki: ≥ 1 µM

SMILES: COc1ccccc1-c1nc(CN2C(=O)/C(=N\O)c3cc(F)ccc32)no1 [Compound 81]
- Ki: ≥ 1 µM

SMILES: O=C1/C(=N\O)c2cc(F)ccc2N1Cc1cccc(Oc2ccccc2)c1 [Compound 82]
- Ki: ≥ 1 µM

SMILES: CS(=O)(=O)c1ccc(CN2C(=O)/C(=N\O)c3cc(F)ccc32)cc1 [Compound 83]
- Ki: ≥ 1 µM

SMILES: COc1cc(CN2C(=O)/C(=N\O)c3cc(F)ccc32)cc(OC)c1 [Compound 84]
- Ki: < 1 µM

The remaining lines, values ahead:

- Ki: < 1 µM
SMILES: O=C1/C(=N\O)c2cc(F)ccc2N1Cc1cc(F)cc2c1OCOC2 [Compound 85]

- Ki: ≥ 1 µM
SMILES: O=C1/C(=N\O)c2cc(F)ccc2N1Cc1csc(-c2ccc(Cl)cc2)n1 [Compound 86]

- Ki: ≥ 1 µM
SMILES: COc1ccc(CN2C(=O)/C(=N\O)c3cc(C)cc(C)c32)cc1 [Compound 87]

- Ki: ≥ 1 µM
SMILES: Cc1cc(C)c2c(c1)/C(=N/O)C(=O)N2Cc1cccc([N+](=O)[O-])c1 [Compound 88]

- Ki: ≥ 1 µM
SMILES: Cc1cc(C)c2c(c1)/C(=N/O)C(=O)N2Cc1ccccc1C#N [Compound 89]

- Ki: ≥ 1 µM
SMILES: COc1ccccc1-c1nc(CN2C(=O)/C(=N\O)c3cc(C)cc(C)c32)no1 [Compound 90]

- Ki: ≥ 1 µM
SMILES: COc1ccc(-c2nc(CN3C(=O)/C(=N\O)c4cc(C)cc(C)c43)no2)cc1 [Compound 91]

- Ki: ≥ 1 µM
SMILES: Cc1cc(C)c2c(c1)/C(=N/O)C(=O)N2Cc1cccc(Oc2ccccc2)c1 [Compound 92]

- Ki: ≥ 1 µM
SMILES: Cc1cc(C)c2c(c1)/C(=N/O)C(=O)N2Cc1ccc(S(C)(=O)=O)cc1 [Compound 93]

- Ki: ≥ 1 µM
SMILES: COc1cc(CN2C(=O)/C(=N\O)c3cc(C)cc(C)c32)cc(OC)c1 [Compound 94]

- Ki: ≥ 1 µM
SMILES: Cc1cc(C)c2c(c1)/C(=N/O)C(=O)N2Cc1cc(F)cc2c1OCOC2 [Compound 95]

- Ki: ≥ 1 µM
SMILES: Cc1cc(C)c2c(c1)/C(=N/O)C(=O)N2Cc1csc(-c2ccc(Cl)cc2)n1 [Compound 96]

- Ki: ≥ 1 µM
SMILES: COc1ccc(CN2C(=O)/C(=N\O)c3cc(Cl)cc(C)c32)cc1 [Compound 97]

- Ki: < 1 µM
SMILES: Cc1cc(Cl)cc2c1N(Cc1cccc([N+](=O)[O-])c1)C(=O)/C2=N\O [Compound 98]

- Ki: ≥ 1 µM
SMILES: Cc1cc(Cl)cc2c1N(Cc1ccccc1C#N)C(=O)/C2=N\O [Compound 99]

- Ki: ≥ 1 µM
SMILES: Cc1cc(Cl)cc2c1N(Cc1cccc(Oc3ccccc3)c1)C(=O)/C2=N\O [Compound 100]

- Ki: ≥ 1 µM
SMILES: Cc1cc(Cl)cc2c1N(Cc1ccc(S(C)(=O)=O)cc1)C(=O)/C2=N\O [Compound 101]

- Ki: < 1 µM
SMILES: COc1cc(CN2C(=O)/C(=N\O)c3cc(Cl)cc(C)c32)cc(OC)c1 [Compound 102]

- Ki: < 1 µM
SMILES: Cc1cc(Cl)cc2c1N(Cc1cc(F)cc3c1OCOC3)C(=O)/C2=N\O [Compound 103]

- Ki: ≥ 1 µM
SMILES: Cc1cc(Cl)cc2c1N(Cc1ccccn1)C(=O)/C2=N\O [Compound 104]

- Ki: ≥ 1 µM
SMILES: COc1ccc(CN2C(=O)/C(=N\O)c3cc(OC(F)(F)F)ccc32)cc1 [Compound 105]

- Ki: ≥ 1 µM
SMILES: O=C1/C(=N\O)c2cc(OC(F)(F)F)ccc2N1Cc1cccc([N+](=O)[O-])c1 [Compound 106]

- Ki: ≥ 1 µM
SMILES: COc1cc(CN2C(=O)/C(=N\O)c3cc(OC(F)(F)F)ccc32)cc(OC)c1 [Compound 107]

- Ki: ≥ 1 µM
SMILES: O=C1/C(=N\O)c2cc(OC(F)(F)F)ccc2N1Cc1cc(F)cc2c1OCOC2 [Compound 108]

- Ki: ≥ 1 µM
SMILES: COc1ccc(-c2nc(CN3C(=O)/C(=N\O)c4cc(F)ccc43)no2)cc1 [Compound 109]

- Ki: ≥ 1 µM
SMILES: Cc1cc(C)c2c(c1)/C(=N/O)C(=O)N2Cc1ccccn1 [Compound 110]

- Ki: ≥ 1 µM
SMILES: Cc1cc(Cl)cc2c1N(Cc1nc3ccccc3[nH]1)C(=O)/C2=N\O [Compound 111]

- Ki: ≥ 1 µM
SMILES: O=C(Nc1ccc2c(c1)/C(=N/O)C(=O)N2Cc1ccccc1)c1ccccc1 [Compound 115]

- Ki: ≥ 1 µM
SMILES: COc1cccc(C(=O)Nc2ccc3c(c2)/C(=N/O)C(=O)N3Cc2ccccc2)c1 [Compound 120]

- Ki: ≥ 1 µM
SMILES: COc1cc(CN2C(=O)/C(=N\O)c3cc(NC(=O)c4cccc(OC)c4)ccc32)cc(OC)c1 [Compound 121]

- Ki: ≥ 1 µM
SMILES: COc1cccc(C(=O)Nc2ccc3c(c2)/C(=N/O)C(=O)N3Cc2cc(F)cc3c2OCOC3)c1 [Compound 122]

- Ki: ≥ 1 µM
SMILES: COc1cc(CN2C(=O)/C(=N\O)c3cc(NC(=O)CCc4ccccc4)ccc32)cc(OC)c1 [Compound 131]

- Ki: ≥ 1 µM
SMILES: O=C(Nc1ccc2c(c1)/C(=N/O)C(=O)N2Cc1ccccc1)c1cccc2ccccc12 [Compound 136]

- Ki: < 1 µM
SMILES: Cc1ccc2c(c1)N(Cc1cc(F)cc3c1OCOC3)C(=O)/C2=N\O [Compound 149]

- Ki: < 1 µM
SMILES: COc1cc(CN2C(=O)/C(=N\O)c3ccc(C)cc32)cc(OC)c1 [Compound 150]

- Ki: < 1 µM
SMILES: COc1cc(CN2C(=O)/C(=N\O)c3ccc(Br)cc32)cc(OC)c1 [Compound 151]

- Ki: < 1 µM
SMILES: O=C1/C(=N\O)c2ccc(Br)cc2N1Cc1cc(F)cc2c1OCOC2 [Compound 152]
